In this assay the target is T1, human GPR120 (Homo sapiens, UniProt Q5NUL3).
T1 construct: host or cells: HEK293 cells coexpressing Gqi5
T1 sequence (Q5NUL3 1-361): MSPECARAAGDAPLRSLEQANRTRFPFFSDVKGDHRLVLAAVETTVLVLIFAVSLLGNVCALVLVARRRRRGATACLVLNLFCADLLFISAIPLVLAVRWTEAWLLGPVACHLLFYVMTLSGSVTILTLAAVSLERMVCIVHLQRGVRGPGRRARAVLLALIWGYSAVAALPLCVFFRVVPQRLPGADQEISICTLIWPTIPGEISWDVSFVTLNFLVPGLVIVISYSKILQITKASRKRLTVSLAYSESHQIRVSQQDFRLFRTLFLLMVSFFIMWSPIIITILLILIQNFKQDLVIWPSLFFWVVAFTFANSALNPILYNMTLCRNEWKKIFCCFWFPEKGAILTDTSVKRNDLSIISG
Kind of assay: Intracellular Ca2+ (FLIPR Calcium 4, Flexstation) assay in human GPR120 stable HEK293 cell line coexpressing Gqi5. Type of assay: cell-based. The settings on record: for % Activity at 5 μM: 5 μM compound compared to the maximal activity of GW9508 at 6.7 μM (100%); for EC50: human GPR120 stably expressing cells, 8 concentrations 0.00001 to 20 μM. A digest of the protocol: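 Calcium 4 dye-loaded HEK293 cells expressing N-terminally Flag-tagged human GPR120 with Gqi5 (HBSS/20 mM HEPES, pH 7.4; 50 min, 37 °C). Fluorescence (485/525 nm) read for 90 s after addition of compound at 8 concentrations, 0.00001–20 μM; EC50 from Max−Min change. % activity at 5 μM versus maximal GW9508 response (6.7 μM).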

The mark [1] stands for this setting: read-out: EC50 between >1 μM and ≦10 μM.

The structures appear in SMILES notation. Read-outs that look alike come from different tables or passages of the source.

On to `CCOC(Cc1cc(F)c(OCc2cc(C)nn2-c2ccc(Cl)cc2)c(F)c1)C(=O)O` (centres unmarked) [Example 102, 3-(4-((1-(4-chlorophenyl)-3-methyl-1H-pyrazol-5-yl)methoxy)-3,5-difluorophenyl)-2-ethoxypropanoic acid], for which the “% Activity at 5 μM” value amounted to 61%. Besides, under setting [1], the EC50 was in the range of 1 to 10 µM.
The like results for `COc1cc(OCc2cc(C)nn2-c2ccc(Cl)cc2)ccc1CC(C)C(=O)O` (centres unmarked) [Example 103, 3-(4-((1-(4-Chlorophenyl)-3-methyl-1H-pyrazol-5-yl)methoxy)-2-methoxyphenyl)-2-methylpropanoic acid] were, in that order, 78% and 1 to 10 µM.
Consider `Cc1cc(COc2c(F)cc(CC(C)C(=O)O)cc2F)n(-c2ccc(C3CCCCC3)cc2)n1` (centres unmarked) [Example 104, 3-(4-((1-(4-Cyclohexylphenyl)-3-methyl-1H-pyrazol-5-yl)methoxy)-3,5-difluorophenyl)-2-methylpropanoic acid], for which the “% Activity at 5 μM” value is reported as 27%. Under “read-out: EC50 > 10 μM”, the EC50 is above 10 µM.
With `CCCc1ccc(-n2nc(C)cc2COc2c(F)cc(CC(C)C(=O)O)cc2F)cc1` (centres unmarked) [Example 105, 3-(3,5-Difluoro-4-((3-methyl-1-(4-propylphenyl)-1H-pyrazol-5-yl)methoxy)phenyl)-2-methylpropanoic acid], the “% Activity at 5 μM” value is on record as 99%. Moreover, for the setting “read-out: EC50 ≦ 1 μM”, the EC50 was at most 1 µM.
The corresponding values for `Cc1cc(COc2cc3c(cc2F)C(CC(=O)O)CC3)n(-c2ccc(Cl)cc2)n1` (centres unmarked) [Example 106, 2-(5-((1-(4-Chlorophenyl)-3-methyl-1H-pyrazol-5-yl)methoxy)-6-fluoro-2,3-dihydro-1H-inden-1-yl)acetic acid] are 88% and at most 1 µM.
In the case of `Cc1cc(COc2c(F)cc(C3=C(C(=O)O)CCC3)cc2F)n(-c2ccc(Cl)cc2)n1` [Example 107, 2-(4-((1-(4-Chlorophenyl)-3-methyl-1H-pyrazol-5-yl)methoxy)-3,5-difluorophenyl)cyclopent-1-enecarboxylic acid], the “% Activity at 5 μM” value is on record as 32%. Also, the EC50 under setting [1] lay in the range of 1 to 10 µM.
Turning to `Cc1cc(COc2ccc(CC(C)C(=O)O)cc2F)n(-c2ccc(Cl)cc2)n1` (centres unmarked) [Example 108, 3-(4-((1-(4-Chlorophenyl)-3-methyl-1H-pyrazol-5-yl)methoxy)-3-fluorophenyl)-2-methylpropanoic acid], the “% Activity at 5 μM” value is recorded as 106%. The EC50 (read-out: EC50 ≦ 1 μM) is at most 1 µM.
Consider `Cc1cc(COc2ccc(CC(C)C(=O)O)cc2C)n(-c2ccc(Cl)cc2)n1` (centres unmarked) [Example 109, 3-(4-((1-(4-Chlorophenyl)-3-methyl-1H-pyrazol-5-yl)methoxy)-3-methylphenyl)-2-methylpropanoic acid], for which the “% Activity at 5 μM” value came out at 114%. In addition, the EC50 (read-out: EC50 ≦ 1 μM) was at most 1 µM.
In the case of `Cc1cc(COc2c(F)cc(CC(C)C(=O)O)cc2F)n(-c2ncc(Cl)cn2)n1` (centres unmarked) [Example 110, 3-(4-((1-(5-Chloropyrimidin-2-yl)-3-methyl-1H-pyrazol-5-yl)methoxy)-3,5-difluorophenyl)-2-methylpropanoic acid], the “% Activity at 5 μM” value is on record as 19%. For the same compound, the EC50 (read-out: EC50 > 10 μM) was above 10 µM.
In the case of `Cc1cc(COc2ccc(C=C3CC(C(=O)O)C3)cc2)n(-c2ccc(Cl)cc2)n1` (centres unmarked) [Example 111, 3-(4-((1-(4-Chlorophenyl)-3-methyl-1H-pyrazol-5-yl)methoxy)benzylidene)cyclobutanecarboxylic acid], the “% Activity at 5 μM” value is 80%. For the setting “read-out: EC50 ≦ 1 μM”, the EC50 was at most 1 µM.
In the case of `COc1cc(CC(C)C(=O)O)ccc1OCc1cc(C)nn1-c1ccc(Cl)cc1` (centres unmarked) [Example 112, 3-(4-((1-(4-Chlorophenyl)-3-methyl-1H-pyrazol-5-yl)methoxy)-3-methoxyphenyl)-2-methylpropanoic acid], the “% Activity at 5 μM” value is on record as 83%. The EC50 under setting [1] was 1 to 10 µM.
`Cc1cc(COc2c(Cl)cc(CC(C)C(=O)O)cc2Cl)n(-c2ccc(Cl)cc2)n1` (centres unmarked) [Example 113, 3-(3,5-Dichloro-4-((1-(4-chlorophenyl)-3-methyl-1H-pyrazol-5-yl)methoxy)phenyl)-2-methylpropanoic acid]: the “% Activity at 5 μM” value is given as 92%. The concentration for a half-maximal effect (EC50) (read-out: EC50 ≦ 1 μM) was at most 1 µM.
The like results for `CC(Cc1cc(F)c(OCc2c(C(F)(F)F)nn(C)c2Oc2ccccc2)c(F)c1)C(=O)O` (centres unmarked) [Example 114, 3-(3,5-Difluoro-4-((1-methyl-5-phenoxy-3-(trifluoromethyl)-1H-pyrazol-4-yl)methoxy)phenyl)-2-methylpropanoic acid] were, in that order, 111% and at most 1 µM.
The like results for `CC(Cc1cc(F)c(OCc2c(C(F)(F)F)nn(C)c2Oc2ccc(Cl)cc2)c(F)c1)C(=O)O` (centres unmarked) [Example 115, 3-(4-((5-(4-Chlorophenoxy)-1-methyl-3-(trifluoromethyl)-1H-pyrazol-4-yl)methoxy)-3,5-difluorophenyl)-2-methylpropanoic Acid] were, in that order, 118% and at most 1 µM.
The like results for `Cc1cc(COc2c(F)cc(CC(C)C(=O)O)cc2F)c(-c2ccccc2)o1` (centres unmarked) [Example 116, 3-(3,5-Difluoro-4-((5-methyl-2-phenylfuran-3-yl)methoxy)phenyl)-2-methylpropanoic acid] were, in that order, 115% and at most 1 µM.
Regarding `CC(Cc1cc(F)c(OCc2cc(C(F)(F)F)nn2-c2ccc(Cl)cc2)c(F)c1)C(=O)O` (centres unmarked) [Example 117, 3-(4-((1-(4-chlorophenyl)-3-(trifluoromethyl)-1H-pyrazol-5-yl)methoxy)-3,5-difluorophenyl)-2-methylpropanoic acid], the “% Activity at 5 μM” value amounted to 105%. In addition, the concentration for a half-maximal effect (EC50) (read-out: EC50 ≦ 1 μM) is at most 1 µM.
`CCc1cc(OCc2cc(C)nn2-c2ccc(Cl)cc2)ccc1CCC(=O)O` [Example 118, 3-(4-((1-(4-chlorophenyl)-3-methyl-1H-pyrazol-5-yl)methoxy)-2-ethylphenyl)propanoic acid]: the “% Activity at 5 μM” value stood at 103%. The EC50 (read-out: EC50 ≦ 1 μM) was at most 1 µM.
As to `O=C(O)CC1CCc2cc(OCc3cc(C(F)(F)F)nn3-c3ccc(Cl)cc3)ccc21` (centres unmarked) [Example 119, 2-(5-((1-(4-chlorophenyl)-3-(trifluoromethyl)-1H-pyrazol-5-yl)methoxy)-2,3-dihydro-1H-inden-1-yl)acetic acid], the “% Activity at 5 μM” value came to 92%.
For the compound `Cc1cc(COc2ccc3c(c2)CCC3CC(=O)O)n(-c2ccc3c(c2)CCC3)n1` (centres unmarked) [Example 120, 2-(5-((1-(2,3-dihydro-1H-inden-5-yl)-3-methyl-1H-pyrazol-5-yl)methoxy)-2,3-dihydro-1H-inden-1-yl)acetic acid], the “% Activity at 5 μM” value is reported as 94%. Under “read-out: EC50 ≦ 1 μM”, the EC50 is at most 1 µM.
The like results for `CCc1ccc(-n2nc(C)cc2COc2ccc3c(c2)CCC3CC(=O)O)cc1` (centres unmarked) [Example 121, 2-(5-((1-(4-ethylphenyl)-3-methyl-1H-pyrazol-5-yl)methoxy)-2,3-dihydro-1H-inden-1-yl)acetic acid] were, in that order, 94% and at most 1 µM.
The corresponding values for `Cc1cc(COc2c(F)cc(CC(C)C(=O)O)cc2F)n(-c2ccccc2)n1` (centres unmarked) [Example 122, 3-(3,5-difluoro-4-((3-methyl-1-phenyl-1H-pyrazol-5-yl)methoxy)phenyl)-2-methylpropanoic acid] are 91% and at most 1 µM.
For `CCc1ccc(-n2nc(C)cc2COc2ccc3c(c2)CCCC3CC(=O)O)cc1` (centres unmarked) [Example 123, 2-(6-((1-(4-ethylphenyl)-3-methyl-1H-pyrazol-5-yl)methoxy)-1,2,3,4-tetrahydronaphthalen-1-yl)acetic acid], the “% Activity at 5 μM” value is 67%. Also, the EC50 (read-out: EC50 > 10 μM) was above 10 µM.
Turning to `Cc1cc(COc2c(F)cc(CC(C)C(=O)O)cc2F)n(-c2ccccn2)n1` (centres unmarked) [Example 124, 3-(3,5-difluoro-4-((3-methyl-1-(pyridin-2-yl)-1H-pyrazol-5-yl)methoxy)phenyl)-2-methylpropanoic acid], the “% Activity at 5 μM” value amounted to 33%. Further, the EC50 (read-out: EC50 > 10 μM) was above 10 µM.
In the case of `Cc1cc(COc2ccc(C(C)(C)CC(=O)O)cc2)n(-c2ccc(Cl)cc2)n1` [Example 125, 3-(4-((1-(4-chlorophenyl)-3-methyl-1H-pyrazol-5-yl)methoxy)phenyl)-3-methylbutanoic acid], the “% Activity at 5 μM” value is 47%. The EC50 under setting [1] fell in the range of 1 to 10 µM.
The like results for `CCc1ccc(-n2nc(C)cc2COc2ccc(C(C)(C)CC(=O)O)cc2)cc1` [Example 126, 3-(4-((1-(4-ethylphenyl)-3-methyl-1H-pyrazol-5-yl)methoxy)phenyl)-3-methylbutanoic acid] were, in that order, 48% and 1 to 10 µM.
`Cc1cc(COc2ccc(CCCC(=O)O)cc2)n(-c2ccc(Cl)cc2)n1` [Example 127, 4-(4-((1-(4-chlorophenyl)-3-methyl-1H-pyrazol-5-yl)methoxy)phenyl)butanoic acid]: the “% Activity at 5 μM” value was 112%. In addition, the EC50 (read-out: EC50 ≦ 1 μM) is at most 1 µM.
The corresponding values for `Cc1cc(COc2c(F)cc(CCCC(=O)O)cc2F)n(-c2ccc(Cl)cc2)n1` [Example 128, 4-(4-((1-(4-chlorophenyl)-3-methyl-1H-pyrazol-5-yl)methoxy)-3,5-difluorophenyl)butanoic acid] are 112% and at most 1 µM.

The term EC50 denotes the concentration that produces a half-maximal response.
